According to patent publication US20140180549A1, “AUTOMATED MACHINE FOR SELECTIVE IN SITU MANIPULATION OF PLANTS” (The Arizona Board of Regents on Behalf of the University of …, priority 2011, published 2014):

Test system: Lettuce seedlings
Experiment: Comparison of automated (machine-vision spray) and hand plant thinning
Type: in vivo
Details: for Time (hand laborer with hand hoe to remove weeds and lettuce plants missed during thinning): after thinning operation; for Time (hand laborer with hand hoe to remove weeds and lettuce plants missed during thinning) / Plant Count (number of live plants per acre after thinning): letters = Duncan's groups (P = 0.05); for machine performance as compared to hand thinning / Plant Count (number of live plants per acre after thinning) / Plant Spacing (average of the measured distance to each live plant after thinning): lettuce seedlings; for machine performance as compared to hand thinning: liquid product sprayed by automated thinning machine; for Plant Count (number of live plants per acre after thinning) / Plant Spacing (average of the measured distance to each live plant after thinning): product sprayed by automated thinning machine; for Plant Spacing (average of the measured distance to each live plant after thinning): letters = Duncan's new multiple range test groups (P = 0.05)
Description: The machine vision system used in this example is as described in Example 1, except the spray nozzles were enclosed within a “hooded” box assembly to protect sprayed treatment from wind effects.
Lettuce seedlings were thinned either using the machine vision system with the indicated treatments. The far left column lists the seven treatments tested, including hand thinning (control) and six treatments used by the automated thinning machine. Of these six, the automated thinning machine was evaluated spraying five different liquid products (two acids, two fertilizers, and one herbicide) known to kill plants and one mechanical method (knife blade—“hula hoe” design). The second column is the cost of the material sprayed for the flow rates and travel speeds used. The third column is the average of the measured distance to each live plant after thinning. The fourth column is the number of live plants per acre after thinning. The fifth column is the time required by a hand laborer to walk through the field with a hand hoe and remove weeds in the row between crop plants and any lettuce plants missed during the thinning operation.

| SMILES | Time (hand laborer with hand hoe to remove weeds and lettuce plants missed during thinning) | machine performance as compared to hand thinning | Plant Count (number of live plants per acre after thinning) | Plant Spacing (average of the measured distance to each live plant after thinning) |
| --- | --- | --- | --- | --- |
| O=S(=O)(O)O [Sulfuric Acid (10%), Sulfuric Acid] | 2.7d hr/acre | no difference | 26,758b per/acre | 10.2a inch |
| CC(=O)O [Acetic Acid (20%), Acetic Acid] | 3.0cd hr/acre |  | 30,181b per/acre | 8.9b inch |
| C[n+]1ccc(-c2cc[n+](C)cc2)cc1 [Paraquat, reference compound] | 2.8d hr/acre | no difference | 27,692b per/acre | 9.6ab inch |
